Read-outs that look alike come from different tables or passages of the source.
Experiments:
α1β1δ GABAA receptors = target: T1, α1β1δ GABAA receptors (Rattus norvegicus, UniProt P15431+P62813); experiment: Two electrode voltage clamp in Xenopus laevis oocytes, α1β1δ; type: cell-based; conditions: α1β1δ
T1 construct: expressed in transfected cells; host or cells: Xenopus laevis oocytes, mRNA injected
Excerpt: cDNA’s of rat GABAA receptor subunits α1, α4, β1, β2, β3 and γ2S were cloned as described. cDNAs of the rat subunits α2, α3 and α5 were gifts from P. Malherbe, that of α6 and γ1 were gifts of P. Seeburg and that of δ was a gift of C. Czajkowski. The mutants were constructed using the Q5 Site-Directed Mutagenesis Kit (New England Biolabs) following manufacturer’s instruction. We used the wild-type rat β3-pCI vector as template and the primers […] and […] resulting in a substitution of amino acid N41 (AAC) to R (AGG). We used the wild-type rat β1-pCI vector as template and the primers […] and […] resulting in a substitution of amino acid R41 (CGG) to N (AAC). The mutated subunits were confirmed by sequencing.
In vitro transcription of mRNA was based on the cDNA expression vectors encoding for rat GABAA receptor subunits α1–6, β1-3, γ1,2, δ and the two β mutants (β1R41N and β3N41R)[40]. After linearizing the cDNA vectors with appropriate restriction endonucleases, the cDNA was purified and concentrated with the DNA Clean and Contentrator ^TM Kit (Zymoresearch, Catalog No. D4005). Capped transcripts of the purified cDNA were produced using the mMESSAGE mMACHINE® T7 transcription kit (Ambion, TX, USA) and polyadenylated using the Ambion PolyA tailing kit (Ambion). After transcription and polyadenylation the RNA was purified with the MEGAclear ^TM Kit (Ambion, Catalog No. AM1908). The final RNA concentration was measured on NanoDrop® ND-1000 and finally diluted and stored in diethylpyrocarbonate-treated water at −80 °C. For the microinjection, the RNA of αβ receptor combinations was mixed at 1:1 ratio (which leads to αβ receptors that consist of predominantly 3 beta and 2 alpha subunits[27]), for αkβlγm (k = 1–3, l = 1, 3, m = 1, 2) receptors at 1:1:5 ratio, for αkβ3γ2 (k = 4–6) and αkβlδ (k = 1, 4 and 6, l = 1, 3) receptor combinations at 3:1:5 ratio.
Mature female Xenopus laevis (Nasco, WI) were anesthetized in a bath of ice-cold 0.17% Tricain (Ethyl-m-aminobenzoate, Sigma, MO) before decapitation in full accordance with all rules of the Austrian animal protection law (see http://www.ris.bka.gv.at/Dokumente/BgblAuth/BGBLA_2012_I_114/BGBLA_2012_I_114.pdf) and the Austrian animal experiment by-laws (see https://www.ris.bka.gv.at/Dokumente/BgblAuth/BGBLA_2012_II_522/BGBLA_2012_II_522.pdf) which implement the European Directive 2010/63/EU (see http://eur-lex.europa.eu/LexUriServ/LexUriServ.do?uri=OJ:L:2010:276:0033:0079:en:PDF) into the Austrian law (all information accessed on July 27, 2016). The frog’s ovaries were transferred to ND96 medium (96 mM NaCl, 2 mM KCl, 1 mM MgCl2, 5 mM HEPES; pH 7.5). Stage 5–6 oocytes with the follicle cell layer around them were roughly dissected with forceps into packages of 10–15 cells and washed in Ca^2+-free ND96 medium. Cells were then digested with collagenase (type IA, Sigma, NO, 1 mg/mL ND96) at 18 °C shaking at 30 rpm for 30–60 minutes and gently defolliculated with the aid of a glass pipette with appropriate tip diameter and a platinum loop. Defolliculated cells were stored at 18 °C for at least 6 hours in ND96 solution containing penicillin G (10000 IU/100 mL) and streptomycin (10 mg/100 mL) in order to preselect and exclude damaged cells from further treatment. Healthy defolliculated oocytes were injected with an aqueous solution of mRNA. A total of 4.5 ng of mRNA per oocyte was injected with a Nanoject II (Drummond). After injection of mRNA, oocytes were incubated at 18 °C (ND96 + antibiotic) for 2–3 days for αβ receptors and for 3–4 days for αβγ or αβδ receptors before recording. When cells were measured at later time points, oocytes were stored at +4 °C instead of 18 °C.
For electrophysiological recordings, oocytes were placed on a nylon-grid in a bath of Ca^2+-containing NDE solution medium [96 mM NaCl, 5 mM HEPES-NaOH (pH 7.5), 2 mM KCl, 1 mM MgCl2, 1.8 mM CaCl2].

α6β3γ2 GABAA receptors = target: T2, α6β3γ2 GABAA receptors (Rattus norvegicus, UniProt P30191+P63079); parameters: method as in earlier work; conditions: published data, ref 1 (Supplementary References), read-out: Approximate EC50; cited from earlier work
T2 construct: expressed in transfected cells; host or cells: Xenopus laevis oocytes, mRNA injected
T2 sequence (P30191 20-453): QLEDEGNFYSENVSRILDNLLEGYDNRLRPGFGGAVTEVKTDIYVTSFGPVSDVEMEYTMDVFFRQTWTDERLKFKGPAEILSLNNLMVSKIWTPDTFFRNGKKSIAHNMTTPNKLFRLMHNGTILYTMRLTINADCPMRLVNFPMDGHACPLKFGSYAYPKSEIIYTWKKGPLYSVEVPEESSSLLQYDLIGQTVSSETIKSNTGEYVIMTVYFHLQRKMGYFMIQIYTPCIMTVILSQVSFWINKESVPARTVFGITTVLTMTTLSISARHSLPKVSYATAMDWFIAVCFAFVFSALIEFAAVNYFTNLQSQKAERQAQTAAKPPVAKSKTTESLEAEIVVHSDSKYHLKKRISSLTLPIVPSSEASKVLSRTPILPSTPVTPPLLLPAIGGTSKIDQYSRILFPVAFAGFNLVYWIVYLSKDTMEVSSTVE
T2 sequence (P63079 26-473): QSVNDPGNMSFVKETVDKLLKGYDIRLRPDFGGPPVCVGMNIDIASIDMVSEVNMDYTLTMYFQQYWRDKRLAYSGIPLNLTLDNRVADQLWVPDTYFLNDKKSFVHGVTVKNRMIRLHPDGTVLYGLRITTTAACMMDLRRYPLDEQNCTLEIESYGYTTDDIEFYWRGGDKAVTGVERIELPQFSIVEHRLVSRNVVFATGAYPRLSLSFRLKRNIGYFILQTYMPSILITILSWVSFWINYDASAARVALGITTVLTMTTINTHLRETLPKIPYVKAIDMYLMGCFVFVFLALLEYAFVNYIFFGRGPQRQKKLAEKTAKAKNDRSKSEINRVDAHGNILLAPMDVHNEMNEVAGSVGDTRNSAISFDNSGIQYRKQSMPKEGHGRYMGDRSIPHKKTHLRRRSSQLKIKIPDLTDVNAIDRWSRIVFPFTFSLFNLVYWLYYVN
T2 sequence (P18508 39-466 partner): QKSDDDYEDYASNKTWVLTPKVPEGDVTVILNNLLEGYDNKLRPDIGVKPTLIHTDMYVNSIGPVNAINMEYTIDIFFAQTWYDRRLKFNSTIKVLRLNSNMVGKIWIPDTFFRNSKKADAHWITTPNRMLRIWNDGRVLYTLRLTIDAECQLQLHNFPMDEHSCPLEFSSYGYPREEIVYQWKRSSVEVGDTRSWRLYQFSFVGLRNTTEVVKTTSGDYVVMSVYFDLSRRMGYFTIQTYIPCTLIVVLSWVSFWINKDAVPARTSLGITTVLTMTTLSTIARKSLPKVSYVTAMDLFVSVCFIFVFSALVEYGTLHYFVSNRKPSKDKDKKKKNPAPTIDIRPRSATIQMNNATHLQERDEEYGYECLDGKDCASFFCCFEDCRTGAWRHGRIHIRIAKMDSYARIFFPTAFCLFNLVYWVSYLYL

α2β3γ2 GABAA receptors = target: T3, α2β3γ2 GABAA receptors (Rattus norvegicus, UniProt P23576+P63079); parameters: method as in earlier work; conditions: published data, ref 1 (Supplementary References), read-out: Approximate EC50; cited from earlier work
T3 construct: expressed in transfected cells; host or cells: Xenopus laevis oocytes, mRNA injected
T3 sequence (P23576 29-451): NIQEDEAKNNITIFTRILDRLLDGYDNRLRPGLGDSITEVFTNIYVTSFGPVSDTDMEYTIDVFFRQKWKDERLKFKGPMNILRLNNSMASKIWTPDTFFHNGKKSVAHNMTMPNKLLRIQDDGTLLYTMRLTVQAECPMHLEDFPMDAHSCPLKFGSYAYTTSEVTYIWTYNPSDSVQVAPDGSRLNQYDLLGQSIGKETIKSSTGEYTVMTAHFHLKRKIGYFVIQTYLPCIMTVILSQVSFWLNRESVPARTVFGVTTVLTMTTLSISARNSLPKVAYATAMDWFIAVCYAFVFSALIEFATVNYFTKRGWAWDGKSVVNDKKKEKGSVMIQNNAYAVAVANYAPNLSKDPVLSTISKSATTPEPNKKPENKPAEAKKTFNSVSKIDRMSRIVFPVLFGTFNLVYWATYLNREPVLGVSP
T3 sequence (P63079 26-473): as the sequence (P63079 26-473) above
T3 sequence (P18508 39-466 partner): as the sequence (P18508 39-466 partner) above

α3β2γ2 GABAA receptors = target: α3β2γ2 GABAA receptors; parameters: method as in earlier work; conditions: published data, ref 1 (Supplementary References), read-out: Approximate EC50; cited from earlier work
α1β2γ2 GABAA receptors = target: α1β2γ2 GABAA receptors; parameters: method as in earlier work; conditions: published data, ref 1 (Supplementary References), read-out: Approximate EC50; cited from earlier work
α5β3γ2 GABAA receptors = target: T4, α5β3γ2 GABAA receptors (Rattus norvegicus, UniProt P19969+P63079); parameters: method as in earlier work; conditions: published data, ref 1 (Supplementary References), read-out: Approximate EC50; cited from earlier work
T4 construct: expressed in transfected cells; host or cells: Xenopus laevis oocytes, mRNA injected

α1β3γ2 GABAA receptors = target: T5, α1β3γ2 GABAA receptors (Rattus norvegicus, UniProt P62813+P63079); parameters: method as in earlier work; conditions: published data, ref 1 (Supplementary References), read-out: Approximate EC50; cited from earlier work
T5 construct: expressed in transfected cells; host or cells: Xenopus laevis oocytes, mRNA injected
T5 sequence (P62813 28-455): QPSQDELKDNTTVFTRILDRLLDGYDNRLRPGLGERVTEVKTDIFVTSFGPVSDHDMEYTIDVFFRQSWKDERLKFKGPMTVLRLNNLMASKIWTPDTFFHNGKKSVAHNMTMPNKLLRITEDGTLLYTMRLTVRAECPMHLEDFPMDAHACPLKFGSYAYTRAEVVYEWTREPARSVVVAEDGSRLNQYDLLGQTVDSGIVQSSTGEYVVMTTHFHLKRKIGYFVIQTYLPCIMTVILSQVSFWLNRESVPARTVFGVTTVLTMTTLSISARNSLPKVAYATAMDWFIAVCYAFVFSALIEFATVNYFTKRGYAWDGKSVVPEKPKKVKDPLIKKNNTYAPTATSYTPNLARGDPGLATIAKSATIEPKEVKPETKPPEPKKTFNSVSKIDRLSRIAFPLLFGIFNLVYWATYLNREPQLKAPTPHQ
T5 sequence (P63079 26-473): as the sequence (P63079 26-473) above
T5 sequence (P18508 39-466 partner): as the sequence (P18508 39-466 partner) above

α3β3 GABAA receptors = target: T6, α3β3 GABAA receptors (Rattus norvegicus, UniProt P20236+P63079); parameters: method as in earlier work; conditions: published data, ref 1 (Supplementary References), read-out: Approximate EC50; cited from earlier work
T6 construct: expressed in transfected cells; host or cells: Xenopus laevis oocytes, mRNA injected
T6 sequence (P20236 29-493): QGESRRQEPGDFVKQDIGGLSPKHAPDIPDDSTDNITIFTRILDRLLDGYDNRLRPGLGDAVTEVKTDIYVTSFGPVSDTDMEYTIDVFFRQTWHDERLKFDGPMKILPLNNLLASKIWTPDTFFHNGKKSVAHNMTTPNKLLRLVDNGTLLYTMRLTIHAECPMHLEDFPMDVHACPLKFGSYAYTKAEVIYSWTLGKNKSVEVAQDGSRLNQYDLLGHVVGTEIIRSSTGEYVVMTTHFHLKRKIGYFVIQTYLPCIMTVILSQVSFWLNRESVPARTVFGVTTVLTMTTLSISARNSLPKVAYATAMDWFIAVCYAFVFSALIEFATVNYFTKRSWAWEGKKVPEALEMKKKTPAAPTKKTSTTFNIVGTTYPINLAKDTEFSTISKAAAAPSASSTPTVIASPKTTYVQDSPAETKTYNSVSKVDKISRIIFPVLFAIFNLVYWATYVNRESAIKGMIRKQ
T6 sequence (P63079 26-473): as the sequence (P63079 26-473) above

α2β3 GABAA receptors = target: T7, α2β3 GABAA receptors (Rattus norvegicus, UniProt P23576+P63079); parameters: method as in earlier work; conditions: published data, ref 1 (Supplementary References), read-out: Approximate EC50; cited from earlier work
T7 construct: expressed in transfected cells; host or cells: Xenopus laevis oocytes, mRNA injected
T7 sequence (P23576 29-451): as the sequence (P23576 29-451) above
T7 sequence (P63079 26-473): as the sequence (P63079 26-473) above

α2β1γ2 GABAA receptors = target: α2β1γ2 GABAA receptors; parameters: method as in earlier work; conditions: published data, ref 1 (Supplementary References), read-out: Approximate EC50; cited from earlier work
α1β1γ2 GABAA receptors = target: α1β1γ2 GABAA receptors; parameters: method as in earlier work; conditions: published data, ref 1 (Supplementary References), read-out: Approximate EC50; cited from earlier work
α4β3γ2 GABAA receptors = target: T8, α4β3γ2 GABAA receptors (Rattus norvegicus, UniProt P28471+P63079); parameters: method as in earlier work; conditions: published data, ref 1 (Supplementary References), read-out: Approximate EC50; cited from earlier work
T8 construct: expressed in transfected cells; host or cells: Xenopus laevis oocytes, mRNA injected
T8 sequence (P28471 36-552): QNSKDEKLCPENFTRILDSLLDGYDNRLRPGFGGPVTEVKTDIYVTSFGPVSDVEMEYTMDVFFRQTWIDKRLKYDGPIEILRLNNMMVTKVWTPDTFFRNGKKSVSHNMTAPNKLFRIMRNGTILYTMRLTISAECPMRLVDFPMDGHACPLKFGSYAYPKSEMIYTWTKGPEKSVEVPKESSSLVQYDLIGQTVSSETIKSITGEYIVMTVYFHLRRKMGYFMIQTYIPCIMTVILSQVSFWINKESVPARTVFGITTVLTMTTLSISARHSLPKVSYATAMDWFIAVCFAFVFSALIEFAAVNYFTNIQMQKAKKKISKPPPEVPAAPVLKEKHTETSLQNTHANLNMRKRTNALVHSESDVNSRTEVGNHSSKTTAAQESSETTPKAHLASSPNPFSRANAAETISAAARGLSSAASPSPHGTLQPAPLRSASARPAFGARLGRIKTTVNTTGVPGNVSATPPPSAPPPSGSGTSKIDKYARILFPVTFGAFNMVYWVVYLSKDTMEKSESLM
T8 sequence (P63079 26-473): as the sequence (P63079 26-473) above
T8 sequence (P18508 39-466 partner): as the sequence (P18508 39-466 partner) above

α3β3γ2 GABAA receptors = target: T9, α3β3γ2 GABAA receptors (Rattus norvegicus, UniProt P20236+P63079); parameters: method as in earlier work; conditions: published data, ref 1 (Supplementary References), read-out: Approximate EC50; cited from earlier work
T9 construct: expressed in transfected cells; host or cells: Xenopus laevis oocytes, mRNA injected
T9 sequence (P20236 29-493): as the sequence (P20236 29-493) above
T9 sequence (P63079 26-473): as the sequence (P63079 26-473) above
T9 sequence (P18508 39-466 partner): as the sequence (P18508 39-466 partner) above

T1 sequence (P62813 28-455): as the sequence (P62813 28-455) above
T1 sequence (P15431 26-474): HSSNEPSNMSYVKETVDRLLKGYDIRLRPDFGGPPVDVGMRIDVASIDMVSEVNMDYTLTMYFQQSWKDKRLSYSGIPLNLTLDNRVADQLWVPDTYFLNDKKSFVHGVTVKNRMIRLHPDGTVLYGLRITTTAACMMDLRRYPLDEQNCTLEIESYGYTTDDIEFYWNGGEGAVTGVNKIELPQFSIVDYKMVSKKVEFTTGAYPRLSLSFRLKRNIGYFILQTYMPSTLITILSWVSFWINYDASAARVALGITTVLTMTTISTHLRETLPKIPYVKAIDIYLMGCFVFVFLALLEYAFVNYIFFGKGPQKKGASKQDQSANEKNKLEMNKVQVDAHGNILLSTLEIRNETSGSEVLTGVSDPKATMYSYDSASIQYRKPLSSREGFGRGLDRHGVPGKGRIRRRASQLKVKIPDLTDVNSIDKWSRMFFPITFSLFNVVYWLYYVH
T1 sequence (P18506 17-449 partner limits assumed): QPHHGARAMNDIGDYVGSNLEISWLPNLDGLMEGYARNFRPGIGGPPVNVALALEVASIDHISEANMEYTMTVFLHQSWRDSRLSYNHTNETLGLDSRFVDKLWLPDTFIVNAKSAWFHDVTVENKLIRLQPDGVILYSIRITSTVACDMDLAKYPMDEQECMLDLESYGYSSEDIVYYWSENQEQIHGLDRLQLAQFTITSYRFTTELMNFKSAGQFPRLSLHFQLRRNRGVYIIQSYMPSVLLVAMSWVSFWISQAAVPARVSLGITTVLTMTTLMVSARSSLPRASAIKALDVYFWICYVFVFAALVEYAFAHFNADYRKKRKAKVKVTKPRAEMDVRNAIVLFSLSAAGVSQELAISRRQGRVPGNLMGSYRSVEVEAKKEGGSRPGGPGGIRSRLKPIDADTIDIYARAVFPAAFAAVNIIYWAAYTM

activity at 0.01 µM (α1β1δ GABAA receptors; read-out: efficacy, % of control current (GABA EC3-5 = 100%), 10 nM): 126 ± 5.6%
activity at 0.03 µM (α1β1δ GABAA receptors; read-out: efficacy, % of control current (GABA EC3-5 = 100%), 30 nM): 192 ± 21.1%
activity at 10 µM (α1β1δ GABAA receptors; read-out: efficacy, % of control current (GABA EC3-5 = 100%), 10 µM): 294 ± 11.1%
Hill slope (nH) (α1β1δ GABAA receptors): 0.8±0.2
EC50 (α1β1δ GABAA receptors; co-applied with GABA EC3-5, read-out: EC50): 70 nM
EC50 (α1β1δ GABAA receptors; log of EC50, sign as printed, read-out: LogEC50 (converted)): 100 nM
Compound: COc1ccc(-n2nc3c4cc(Cl)ccc4[nH]cc-3c2=O)cc1 [Compound 1, 8-Chloro-2-(4-methoxyphenyl)-2H-pyrazolo[4,3-c]quinolin-3(5H)-one]
EC50 (α6β3γ2 GABAA receptors): ~3300 nM
EC50 (α2β3γ2 GABAA receptors): ~2200 nM
EC50 (α3β2γ2 GABAA receptors): ~2100 nM
EC50 (α1β2γ2 GABAA receptors): ~1900 nM
EC50 (α5β3γ2 GABAA receptors): ~600 nM
EC50 (α1β3γ2 GABAA receptors): ~1800 nM
EC50 (α3β3 GABAA receptors): ~1800 nM
EC50 (α2β3 GABAA receptors): ~3000 nM
EC50 (α2β1γ2 GABAA receptors): ~50 nM
EC50 (α1β1γ2 GABAA receptors): ~100 nM
EC50 (α4β3γ2 GABAA receptors): ~900 nM
EC50 (α3β3γ2 GABAA receptors): ~1500 nM
